Experimental data published in patent publication US20240108641A1, “COMPOSITIONS FOR ORAL ADMINISTRATION OF ZOLEDRONIC ACID OR RELATED COMPOUNDS FOR TREATING DISEASE” (ANTECIP BIOVENTURES II LLC, priority 2012, published 2024).

Experiments:
[1] = tested on: health-related quality of life (RAND-36); assay: randomized placebo-controlled trial in chronic low back pain with Modic changes, RAND-36 quality of life; format: in vivo, human; settings: for RAND-36 Mental component, Unadjusted analyses Difference (95% CI) / RAND-36 Physical component, Unadjusted analyses Difference (95% CI) / Total RAND-36, Unadjusted analyses Difference (95% CI) / RAND-36 Mental component, Adjusted analyses Difference (95% CI) / RAND-36 Physical component, Adjusted analyses Difference (95% CI) / Total RAND-36, Adjusted analyses Difference (95% CI): ZA versus placebo; for RAND-36 Mental component, Adjusted analyses Difference (95% CI) / RAND-36 Physical component, Adjusted analyses Difference (95% CI) / Total RAND-36, Adjusted analyses Difference (95% CI): adjusted for baseline; for RAND-36 Mental component, Mean (SD) change / RAND-36 Mental component, Mean (SD) original values / RAND-36 Physical component, Mean (SD) change / RAND-36 Physical component, Mean (SD) original values / Total RAND-36, Mean (SD) change / Total RAND-36, Mean (SD) original values: single 5 mg IV infusion
Protocol: (§1) A study was performed to evaluate the efficacy of a single intravenous infusion of 5 mg ZA in comparison with intravenous placebo infusion among patients with chronic low back pain (LBP) and Modic changes on MRI. This study was a double-blinded, randomized, placebo-controlled clinical trial in patients with low back pain (LBP). Patients were included in the study if they had low back symptoms for at least three months, an LBP of at least six (6) on a 10-cm Visual Analog Scale (VAS) or an Oswestry Disability Index (ODI) of at least 30%, and an M1, mixed M1/2 or M2 type change on MRI performed within six months at most prior to enrolment.
(§2) After confirmation of eligibility patients were randomized to receive a single intravenous infusion of 5 mg zoledronic acid (n=20) or 100 ml saline as placebo (n=20) over a 15-minute period. Information on use of the concomitant medication and hospital admissions were recorded. Blood samples were taken for the assessment of safety, inflammatory mediators and markers of bone turnover at baseline, one month and one year.
(§3) Clinical assessments were performed 14 days before enrolment (screening visit), and follow-up visits at one month and one year after the infusion. The primary outcome was the change in the intensity of LBP on VAS. Secondary outcomes included leg pain intensity, ODI, health-related quality of life assessed with RAND-36, patient-reported sick leaves and lumbar flexibility. These outcome measures were assessed at baseline and at each follow-up. Lumbar flexibility was evaluated using the fingers-to-floor and trunk side bending measures (in cm). The percentage of patients undergoing a 20% relative improvement, the proportion of patients reaching a VAS score of 40 or less in the primary outcome, and patient acceptable symptom state (PASS) were also assessed. Pain medication use was inquired about during the follow-up visits.

[2] = tested on: chronic low back pain (LBP) and Modic changes; assay: randomized placebo-controlled trial in chronic low back pain with Modic changes, low back symptoms and lumbar flexibility; format: in vivo, human; settings: for Fingers-to-floor, Unadjusted analyses Difference (95% CI) / Intensity of LBP, Unadjusted analyses Difference (95% CI) / Intensity of leg pain, Unadjusted analyses Difference (95% CI) / Oswestry disability index, Unadjusted analyses Difference (95% CI) / Sidebending to left, Unadjusted analyses Difference (95% CI) / Sidebending to right, Unadjusted analyses Difference (95% CI) / Fingers-to-floor, Adjusted analyses Difference (95% CI) / Intensity of LBP, Adjusted analyses Difference (95% CI) / Intensity of leg pain, Adjusted analyses Difference (95% CI) / Oswestry disability index, Adjusted analyses Difference (95% CI) / Sidebending to left, Adjusted analyses Difference (95% CI) / Sidebending to right, Adjusted analyses Difference (95% CI): ZA versus placebo; for Fingers-to-floor, Adjusted analyses Difference (95% CI) / Intensity of LBP, Adjusted analyses Difference (95% CI) / Intensity of leg pain, Adjusted analyses Difference (95% CI) / Oswestry disability index, Adjusted analyses Difference (95% CI) / Sidebending to left, Adjusted analyses Difference (95% CI) / Sidebending to right, Adjusted analyses Difference (95% CI): adjusted for baseline; for Intensity of LBP, Mean (SD) original values: 10 cm VAS
Protocol: as §1
Patients were excluded from the study if they had renal impairment with reduced creatinine clearance defined as an estimated glomerular filtration rate (eGFR) below 40 ml/min, hypocalcemia, known hypersensitivity to zoledronic acid or other bisphosphonates or ingredients of the infusion product, the presence of red flags, nerve root entrapment or willingness for early retirement. Premenopausal women of childbearing potential were also excluded. Blood samples were taken prior to the infusion to assess the serum concentration of calcium and creatinine. The clinical examination included medical history and clinical assessment of lumbar flexibility, tendon signs, and motor and sensory testing.
as §2, §3

[3] = 12 mos., single 5 mg IV infusion
[4] = one month, single 5 mg IV infusion

O=P(O)(O)C(O)(Cn1ccnc1)P(=O)(O)O [zoledronic acid]
RAND-36 Mental component, Unadjusted analyses Difference (95% CI) ([1]; 1 mo.): 2.0 (−2 to 6)
RAND-36 Physical component, Unadjusted analyses Difference (95% CI) ([1]; 1 mo.): 0.3 (−4 to 5)
Total RAND-36, Unadjusted analyses Difference (95% CI) ([1]; 1 mo.): 1.2 (−3 to 5)
RAND-36 Mental component, Adjusted analyses Difference (95% CI) ([1]; 1 mo.): 1.6 (−2 to 5)
RAND-36 Physical component, Adjusted analyses Difference (95% CI) ([1]; 1 mo.): 1.3 (−3 to 6)
Total RAND-36, Adjusted analyses Difference (95% CI) ([1]; 1 mo.): 1.3 (−3 to 5)
RAND-36 Mental component, Mean (SD) change ([1]; 1 mo.): 1.0 (6.1)
RAND-36 Mental component, Mean (SD) original values ([1]; 1 mo.): 50 (9)
RAND-36 Physical component, Mean (SD) change ([1]; 1 mo.): 0.1 (8.6)
RAND-36 Physical component, Mean (SD) original values ([1]; 1 mo.): 52 (9)
Total RAND-36, Mean (SD) change ([1]; 1 mo.): 0.6 (6.4)
Total RAND-36, Mean (SD) original values ([1]; 1 mo.): 51 (8)
RAND-36 Mental component, Unadjusted analyses Difference (95% CI) ([1]; 12 mos.): 3.5 (−2 to 9)
RAND-36 Physical component, Unadjusted analyses Difference (95% CI) ([1]; 12 mos.): 0.7 (−5 to 6)
Total RAND-36, Unadjusted analyses Difference (95% CI) ([1]; 12 mos.): 2.1 (−3 to 7)
RAND-36 Mental component, Adjusted analyses Difference (95% CI) ([1]; 12 mos.): 2.7 (−2 to 7)
RAND-36 Physical component, Adjusted analyses Difference (95% CI) ([1]; 12 mos.): 2.1 (−3 to 7)
Total RAND-36, Adjusted analyses Difference (95% CI) ([1]; 12 mos.): 2.2 (−2 to 7)
RAND-36 Mental component, Mean (SD) change ([1]; 12 mos.): 1.8 (9.0)
RAND-36 Mental component, Mean (SD) original values ([1]; 12 mos.): 51 (9)
RAND-36 Physical component, Mean (SD) change ([1]; 12 mos.): 0.3 (10)
RAND-36 Physical component, Mean (SD) original values ([1]; 12 mos.): 52 (8)
Total RAND-36, Mean (SD) change ([1]; 12 mos.): 1.0 (8.7)
Total RAND-36, Mean (SD) original values ([1]; 12 mos.): 51 (8)
Fingers-to-floor, Unadjusted analyses Difference (95% CI) ([2]; 1 mo.): 5.0 (−4.8 to 15) cm
Intensity of LBP, Unadjusted analyses Difference (95% CI) ([2]; 1 mo.): 1.3 (−0.2 to 2.8)
Intensity of leg pain, Unadjusted analyses Difference (95% CI) ([2]; 1 mo.): 0.8 (−0.9 to 2.4)
Oswestry disability index, Unadjusted analyses Difference (95% CI) ([2]; 1 mo.): 4.3 (−2.5 to 11) %
Sidebending to left, Unadjusted analyses Difference (95% CI) ([2]; 1 mo.): −1.5 (−3.2 to 0.1) cm
Sidebending to right, Unadjusted analyses Difference (95% CI) ([2]; 1 mo.): −2.0 (−4.3 to 0.4) cm
Fingers-to-floor, Adjusted analyses Difference (95% CI) ([2]; 1 mo.): 3.6 (−5.0 to 12) cm
Intensity of LBP, Adjusted analyses Difference (95% CI) ([2]; 1 mo.): 1.4
Intensity of leg pain, Adjusted analyses Difference (95% CI) ([2]; 1 mo.): 0.8 (−0.6 to 2.2)
Oswestry disability index, Adjusted analyses Difference (95% CI) ([2]; 1 mo.): 6.0%
Sidebending to left, Adjusted analyses Difference (95% CI) ([2]; 1 mo.): −1.7 (−3.4 to 0.0) cm
Sidebending to right, Adjusted analyses Difference (95% CI) ([2]; 1 mo.): −2.0 (−4.4 to 0.3) cm
Intensity of LBP, Adjusted analyses Difference (95% CI) ([2]; 1 mo., listed as ZA): 1.4 (0.01 to 2.9)
Oswestry disability index, Adjusted analyses Difference (95% CI) ([2]; 1 mo., listed as ZA): 6.0 (−0.6 to 13) %
Fingers-to-floor, Mean (SD) change ([2]; 1 mo., single 5 mg IV infusion): −5.1 (20) cm
Fingers-to-floor, Mean (SD) original values ([2]; 1 mo., single 5 mg IV infusion): 17 (17) cm
Intensity of LBP, Mean (SD) change ([2]; 1 mo., single 5 mg IV infusion): −2.2 (2.7)
Intensity of leg pain, Mean (SD) change ([2]; 1 mo., single 5 mg IV infusion): −0.6 (2.4)
Intensity of leg pain, Mean (SD) original values ([2]; 1 mo., single 5 mg IV infusion): 2.0 (2.3)
Oswestry disability index, Mean (SD) change ([2]; 1 mo., single 5 mg IV infusion): −5.9 (11) %
Oswestry disability index, Mean (SD) original values ([2]; 1 mo., single 5 mg IV infusion): 24 (10) %
Sidebending to left, Mean (SD) change ([2]; 1 mo., single 5 mg IV infusion): 1.1 (3.0) cm
Sidebending to left, Mean (SD) original values ([2]; 1 mo., single 5 mg IV infusion): 16.1 (5.3) cm
Sidebending to right, Mean (SD) change ([2]; 1 mo., single 5 mg IV infusion): 1.5 (4.7) cm
Sidebending to right, Mean (SD) original values ([2]; 1 mo., single 5 mg IV infusion): 15.7 (5.9) cm
Intensity of LBP, Mean (SD) original values ([2]; 1 mo., single 5 mg IV infusion): 4.3 (2.3)
Fingers-to-floor, Unadjusted analyses Difference (95% CI) ([2]; 12 mos.): 7.1 (−4.3 to 18) cm
Intensity of LBP, Unadjusted analyses Difference (95% CI) ([2]; 12 mos.): 0.6 (−1.1 to 2.4)
Intensity of leg pain, Unadjusted analyses Difference (95% CI) ([2]; 12 mos.): 0.6 (−1.5 to 2.7)
Oswestry disability index, Unadjusted analyses Difference (95% CI) ([2]; 12 mos.): 3.1 (−5.6 to 12) %
Sidebending to left, Unadjusted analyses Difference (95% CI) ([2]; 12 mos.): −0.7 (−3.5 to 2.1) cm
Sidebending to right, Unadjusted analyses Difference (95% CI) ([2]; 12 mos.): −1.6 (−4.3 to 1.1) cm
Fingers-to-floor, Adjusted analyses Difference (95% CI) ([2]; 12 mos.): 5.3 (−4.5 to 15) cm
Intensity of LBP, Adjusted analyses Difference (95% CI) ([2]; 12 mos.): 0.7
Intensity of leg pain, Adjusted analyses Difference (95% CI) ([2]; 12 mos.): 0.5 (−1.3 to 2.2)
Oswestry disability index, Adjusted analyses Difference (95% CI) ([2]; 12 mos.): 5.1 (−3.4 to 14) %
Sidebending to left, Adjusted analyses Difference (95% CI) ([2]; 12 mos.): −1.0 (−3.8 to 1.8) cm
Sidebending to right, Adjusted analyses Difference (95% CI) ([2]; 12 mos.): −1.7 (−4.2 to 0.8) cm
Intensity of LBP, Adjusted analyses Difference (95% CI) ([2]; 12 mos., listed as ZA): 0.7 (−1.0 to 2.4)
Fingers-to-floor, Mean (SD) change [2, 3]: −6.3 (23) cm
Fingers-to-floor, Mean (SD) original values [2, 3]: 16 (16) cm
Intensity of LBP, Mean (SD) change [2, 3]: −2.8 (2.9)
Intensity of leg pain, Mean (SD) change [2, 3]: −0.9 (3.4)
Intensity of leg pain, Mean (SD) original values [2, 3]: 2.1 (2.8)
Oswestry disability index, Mean (SD) change [2, 3]: −5.0 (15) %
Oswestry disability index, Mean (SD) original values [2, 3]: 25 (13) %
Sidebending to left, Mean (SD) change [2, 3]: 1.2 (5.3) cm
Sidebending to left, Mean (SD) original values [2, 3]: 16.2 (6.7) cm
Sidebending to right, Mean (SD) change [2, 3]: 1.6 (4.8) cm
Sidebending to right, Mean (SD) original values [2, 3]: 15.7 (5.6) cm
Intensity of LBP, Mean (SD) original values [2, 3]: 3.8 (2.5)
Pain Reduction, VAS Change from Baseline ([2]; Baseline VAS < 6, single 5 mg IV infusion): −0.1 cm
Pain Reduction, VAS Change from Baseline ([2]; Baseline VAS ≥ 6 and <7, single 5 mg IV infusion): −2.3 cm
Pain Reduction, VAS Change from Baseline ([2]; Baseline VAS ≥ 7, single 5 mg IV infusion): −3.4 cm
mean reduction in pain from baseline ([2]; baseline pain intensity <6, single 5 mg IV infusion): 0.1
mean reduction in pain from baseline ([2]; baseline pain intensity ≥7, single 5 mg IV infusion): 3.4
proportion of patients reaching patient acceptable symptom state (PASS) [2, 4]: 50%
proportion of patients with at least 20% improvement in intensity of LBP [2, 4]: 55%
patients using NSAIDs ([2]; one year, single 5 mg IV infusion): 20%
